Laboratory results as given in patent US9765105B2, “Macrolide compound” (Pulike Biological Engineering, Inc., priority 2013, dated 2017).

Key:
[1] = system: Streptococcus pneumoniae CMCC 31203; test: in vivo antibacterial test, survival of infected mice; parameters: species or system BALB/c mice; details: observed until the seventh day
[2] = system: Staphylococcus aureus CVCC26003; test: in vitro susceptibility, MIC by mini broth dilution; assay type: cell-based; details: strain CVCC26003
In short: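 S. aureus CVCC26003 was revived and subcultured twice, 20 h each at 35° C, on solid medium, then diluted 1:200 in CAMHB liquid medium. Compounds received an 11-step two-fold DMSO dilution in parallel duplicate rows. MIC was read by mini broth dilution per NCCLS guidance.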

[3] = acute oral toxicity test, LD50 by improved karber method; details: per os, gavaged once, in 0.2% sodium carboxymethylcellulose; observed 7 days
[4] = system: Streptococcus equines CVCC556; test: in vitro susceptibility, MIC by mini broth dilution; assay type: cell-based; details: strain CVCC556
In short: (§1)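 NCCLS-based mini broth dilution; inoculum from twice-streaked 35° C/20 h cultures, 1:200 in broth; compound two-fold series in DMSO, 11 steps, duplicates.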

[5] = system: Actinobacillus pleuropneumoniae CVCC262; test: as above; assay type: cell-based; details: strain CVCC262
In short: as §1

[6] = system: Pasteurella multocida CVCC399; test: as above; assay type: cell-based; details: strain CVCC399
In short: as §1

Haemophilus parasuis = test: as above; assay type: cell-based
In short: as §1

[7] = acute toxicity test, single gastric perfusion; assay type: in vivo, Balb/c mice; details: 2000 mg/kg once by gastric perfusion, 85 mg/ml suspension; deaths after 6 h
Source text: The marked parts of mice in the Syzx-24 group were respectively left hinder limbs (female), necks (female), right hinder limbs (male), and necks (male). The mice in the solvent control group were not marked.

[8] = orally intoxicated mice; reported; cited from earlier work
[9] = mice infected i.p. with Streptococcus pneumoniae, 5 mg per kg subcutaneous for 3 consecutive days
[10] = medicament control group, Tulathromycin 10 mg per kg after infection

| Compound | Animal survival rate [1, 9] | Animal survival rate (surviving/total animals) [1, 9] | MIC values, Staphylococcus aureus CVCC26003 [2] | LD50 [3] | MIC values, Streptococcus equines CVCC556 [4] | MIC values, Actinobacillus pleuropneumoniae CVCC262 [5] | MIC values, Pasteurella multocida CVCC399 [6] | MIC values, Haemophilus parasuis (Haemophilus parasuis) | Death rate [7] | Number of dead animals/total number of animals [7] | Animal survival rate [1, 10] | Animal survival rate (surviving/total animals) [1, 10] | minimum lethal dose [8] |
| --- | --- | --- | --- | --- | --- | --- | --- | --- | --- | --- | --- | --- | --- |
| CCCNC[C@]1(O)[C@H](C)O[C@@H](O[C@H]2[C@H](C)[C@@H](O[C@@H]3O[C@H](C)C[C@H](N(C)C)[C@H]3O)[C@](C)(O)C[C@@H](C)NC[C@H](C)[C@@H](O)[C@](C)(O)[C@@H](CC)OC(=O)[C@@H]2C)C[C@@]1(C)OC [syzx-1, (2R,3S,4R,5S,8R,10R,11R,12S,13S,14R)-13-[(2,6-dideoxy-3-C-methyl-3-O-methyl-4-C-[(propylamino)methyl]-α-L-ribopyranosyl)oxy]-2-ethyl-3,4,10-trihydroxy-3,5,8,10,12,14-hexamethyl-11-[[3,4,6-trideoxy-3-(dimethylamino)-β-D-xylo-hexopyranosy]oxy]-1-oxa-7-azacyclopentadecan-15-one] | 80% | 8/10 | 0.125 ug/mi | 2584.8 mg/kg | 0.125 ug/mi | 0.125 ug/mi | 1 ug/mi | 0.125 ug/mi | – | – | – | – | – |
| CC[C@H]1OC(=O)[C@H](C)[C@@H](O[C@H]2C[C@@](C)(OC)[C@](O)(CN(C)C)[C@H](C)O2)[C@H](C)[C@@H](O[C@@H]2O[C@H](C)C[C@H](N(C)C)[C@H]2O)[C@](C)(O)C[C@@H](C)NC[C@H](C)[C@@H](O)[C@]1(C)O [Syzx-24] | – | – | 0.5 ug/mi | – | 0.25 ug/mi | 0.25 ug/mi | 0.25 ug/mi | 0.5 ug/mi | 0% | 0/4 | – | – | – |
| CCCNC[C@]1(O)[C@H](C)O[C@@H](O[C@H]2[C@H](C)[C@@H](O[C@@H]3O[C@H](C)C[C@H](N(C)C)[C@H]3O)[C@](C)(O)C[C@@H](C)CN[C@H](C)[C@@H](O)[C@](C)(O)[C@@H](CC)OC(=O)[C@@H]2C)C[C@@]1(C)OC [Tulathromycin, reference compound] | – | – | 0.25 ug/mi | 2379.2 mg/kg | 0.25 ug/mi | 0.25 ug/mi | 0.25 ug/mi | 0.25 ug/mi | 75% | 3/4 (2 female and 1 male) | 70% | 7/10 | higher than 2000 mg/kg·d-1 |
